Experimental data as given in ChEMBL document CHEMBL4393731, “Discovery of fused bicyclic derivatives of 1H-pyrrolo[1,2-c]imidazol-1-one as VDR signaling regulators” (Bioorg Med Chem, 2019).
The source made the active and inactive calls. The rule behind the calls is not given here.

Columns and labels:
[1] = biological target: Genome polyprotein (dengue virus type 2) (UniProt P29990); test: Inhibition of Dengue virus 2 NS2B-NS3 protease
[2] = biological target: T1, Vitamin D3 receptor (Homo sapiens) (UniProt P11473); test: Modulation of VDR (unknown origin) expressed in human HeLa cells assessed as increase in calcitriol-induced response measured after 24 hrs by luciferase reporter assay; type: cell-based
T1 sequence (whole entry): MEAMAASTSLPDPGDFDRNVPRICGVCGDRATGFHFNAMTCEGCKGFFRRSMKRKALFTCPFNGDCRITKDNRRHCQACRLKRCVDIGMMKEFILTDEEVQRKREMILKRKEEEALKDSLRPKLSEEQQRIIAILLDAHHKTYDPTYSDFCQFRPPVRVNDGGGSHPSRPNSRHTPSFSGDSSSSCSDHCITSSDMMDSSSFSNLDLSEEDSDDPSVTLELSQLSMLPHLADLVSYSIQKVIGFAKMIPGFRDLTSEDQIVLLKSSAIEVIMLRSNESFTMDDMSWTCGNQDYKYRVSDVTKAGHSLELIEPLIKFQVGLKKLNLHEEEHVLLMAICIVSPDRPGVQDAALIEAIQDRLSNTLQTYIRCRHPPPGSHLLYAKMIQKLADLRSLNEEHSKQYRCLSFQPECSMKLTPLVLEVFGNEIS

HeLa [3] = test: Cytotoxicity against human HeLa cells measured after 24 hrs by MTT assay; type: cell-based
[4] = biological target: T1, Vitamin D3 receptor (Homo sapiens); test: Activation of VDR (unknown origin) expressed in human HeLa cells measured after 24 hrs by luciferase reporter assay; type: cell-based
[5] = biological target: T1, Vitamin D3 receptor (Homo sapiens); test: Modulation of VDR (unknown origin) expressed in human HeLa cells assessed as increase in calcitriol-induced response at 10 uM measured after 24 hrs by luciferase reporter assay relative to control; type: cell-based
[6] = biological target: T1, Vitamin D3 receptor (Homo sapiens); test: Activation of VDR in human HeLa cells assessed as up regulation of phosphorylated p65 expression at 10 uM measured after 24 hrs in the presence of calcitriol by Western blot analysis; type: cell-based
HeLa [7] = test: Induction of autophagy in human HeLa cells transformed with VDR shRNA assessed as effect on p62 expression at 10 uM measured after 4 hrs in presence of calcitriol by Western blot analysis; type: functional, cell-based
[8] = biological target: T1, Vitamin D3 receptor (Homo sapiens); test: Modulation of VDR in human HeLa cells assessed as increase in calcitriol-induced LC3-2 to LC3-1 ratio at 10 uM measured after 4 hrs by Western blot analysis; type: cell-based
HeLa [9] = test: Up regulation of VDR expression in human HeLa cells at 10 uM measured after 4 hrs in presence of VDR shRNA by Western blot analysis; type: functional, cell-based
[10] = biological target: T1, Vitamin D3 receptor (Homo sapiens); test: Modulation of VDR in human HeLa cells assessed as down regulation of p65 expression at 10 uM measured after 24 hrs in the presence of calcitriol by Western blot analysis; type: cell-based
HeLa [11] = test: Induction of autophagy in human HeLa cells transformed with VDR shRNA assessed as increase in LC3-2 to LC3-1 ratio at 10 uM measured after 4 hrs in presence of calcitriol by Western blot analysis; type: functional, cell-based
HeLa [12] = test: Induction of autophagy in human HeLa cells assessed as calcitriol-induced up regulation of LC3-1 expression at 10 uM measured after 4 hrs by Western blot analysis; type: functional, cell-based
HeLa [13] = test: Induction of autophagy in human HeLa cells transformed with VDR shRNA assessed as effect on p62 expression at 10 uM measured after 4 hrs by Western blot analysis; type: functional, cell-based
HeLa [14] = test: Induction of autophagy in human HeLa cells transformed with VDR shRNA assessed as up regulation of LC3-2 expression at 10 uM measured after 4 hrs in presence of calcitriol by western blot analysis; type: functional, cell-based
[15] = biological target: T1, Vitamin D3 receptor (Homo sapiens); test: Modulation of VDR in human HeLa cells assessed as increase in calcitriol-induced upregulation of p62 expression at 10 uM measured after 4 hrs by Western blot analysis; type: cell-based
HeLa [16] = test: Induction of autophagy in human HeLa cells transformed with VDR shRNA assessed as up regulation of LC3-1 expression at 10 uM measured after 4 hrs in presence of calcitriol by Western blot analysis; type: functional, cell-based
[17] = biological target: T1, Vitamin D3 receptor (Homo sapiens); test: Modulation of VDR in human HeLa cells assessed as increase in calcitriol-induced upregulation of LC3-2 expression at 10 uM measured after 4 hrs by Western blot analysis; type: cell-based
HeLa [18] = test: Induction of autophagy in human HeLa cells transformed with shRNA against VDR assessed as downregulation of LC3-2 expression at 10 uM measured after 4 hrs; type: functional, cell-based

Row | Compound | Inhibition (active/not active) [1] | Activity [2] | CC10 (HeLa [3]) [µM] | Activity [4] | fold change (FC) [5] | Activity [6] | Activity (HeLa [7]) | Activity [8] | Activity (HeLa [9]) | Activity [10] | Activity (HeLa [11]) | Activity (HeLa [12]) | Activity (HeLa [13]) | Activity (HeLa [14]) | Activity [15] | Activity (HeLa [16]) | Activity [17] | Activity (HeLa [18])
1 | O=C1[C@@H]2CCCN2[C@@H](c2cccs2)N1c1ccc([N+](=O)[O-])cc1 | inactive | inactive | > 10 | inactive | – | – | – | – | – | – | – | – | – | – | – | – | – | –
2 | O=C1[C@@H]2CCCN2[C@@H](c2ccc([N+](=O)[O-])cc2)N1c1ccc([N+](=O)[O-])cc1 | Active | Dose-dependent effect | > 10 | inactive | – | – | – | – | – | – | – | – | – | – | – | – | – | –
3 | O=C1[C@@H]2CCCN2[C@@H](c2cccc([N+](=O)[O-])c2)N1c1ccc([N+](=O)[O-])cc1 | Active | inactive | > 10 | inactive | – | – | – | – | – | – | – | – | – | – | – | – | – | –
4 | O=C1[C@@H]2CCCN2[C@@H](c2ccccc2)N1c1ccc([N+](=O)[O-])cc1 | Active | inactive | > 10 | inactive | – | – | – | – | – | – | – | – | – | – | – | – | – | –
5 | O=C1[C@@H]2CCCN2[C@@H](c2ccc(Cl)cc2)N1c1ccc([N+](=O)[O-])cc1 | Active | inactive | > 10 | inactive | – | – | – | – | – | – | – | – | – | – | – | – | – | –
6 | CSCC[C@H](N)C(=O)Oc1ccc([C@H]2N(c3ccc([N+](=O)[O-])cc3)C(=O)[C@@H]3CCCN32)cc1.Cl | inactive | Dose-dependent effect | > 10 | inactive | 2.5 to 3 | Active | inactive | Active | Active | Active | Active | Active | inactive | Active | Active | Active | Active | –
7 | O=C1[C@@H]2CCCN2[C@@H](c2ccc(C(F)(F)F)cc2)N1c1ccc([N+](=O)[O-])cc1 | Active | inactive | > 10 | inactive | – | – | – | – | – | – | – | – | – | – | – | – | – | –
8 | O=C1[C@@H]2CCCN2[C@@H](c2ccc(O)cc2)N1c1ccc([N+](=O)[O-])cc1 | inactive | Dose-dependent effect | > 10 | inactive | – | – | – | – | – | – | – | – | – | – | – | – | – | –
9 | COc1cc([C@H]2N(c3ccc([N+](=O)[O-])cc3)C(=O)[C@@H]3CCCN32)ccc1O | inactive | Dose-dependent effect | > 10 | inactive | – | Active | inactive | – | inactive | Active | – | Active | inactive | Active | Active | Active | Active | –
10 | O=C1[C@@H]2CCCN2[C@@H](c2ccccc2[N+](=O)[O-])N1c1ccc([N+](=O)[O-])cc1 | inactive | inactive | > 10 | inactive | – | – | – | – | – | – | – | – | – | – | – | – | – | –
11 | CSCC[C@H](NC(=O)OC(C)(C)C)C(=O)Nc1ccc([C@H]2N(c3ccc([N+](=O)[O-])cc3)C(=O)[C@@H]3CCCN32)cc1 | inactive | Dose-dependent effect | > 10 | inactive | – | Active | inactive | Active | Active | Active | – | Active | inactive | Active | Active | Active | Active | –
12 | O=C1[C@@H]2CCCN2[C@@H](c2ccc([C@H]3N(c4ccc([N+](=O)[O-])cc4)C(=O)[C@@H]4CCCN43)cc2)N1c1ccc([N+](=O)[O-])cc1 | inactive | inactive | > 10 | inactive | – | – | – | – | – | – | – | – | – | – | – | – | – | –
13 | CC(C)c1ccc([C@H]2N(c3ccc([N+](=O)[O-])cc3)C(=O)[C@@H]3CCCN32)cc1 | Active | inactive | > 10 | inactive | – | – | – | – | – | – | – | – | – | – | – | – | – | –
14 | COc1ccc([C@H]2N(c3ccc([N+](=O)[O-])cc3)C(=O)[C@@H]3CCCN32)cc1 | Active | inactive | > 10 | inactive | – | – | – | – | – | – | – | – | – | – | – | – | – | –
15 | COc1ccc(C[C@H]2N(c3ccc([N+](=O)[O-])cc3)C(=O)[C@@H]3CCCN32)cc1OC | inactive | Dose-dependent effect | > 10 | inactive | 2.5 to 3 | Active | inactive | Active | Active | Active | – | inactive | inactive | – | Active | Active | Active | Active
16 | O=C1[C@@H]2CCCN2[C@@H](Cc2ccc([N+](=O)[O-])cc2)N1c1ccc([N+](=O)[O-])cc1 | Active | inactive | > 10 | inactive | – | – | – | – | – | – | – | – | – | – | – | – | – | –
17 | O=C1[C@@H]2CCCN2[C@@H](CCC[C@H]2N(c3ccc([N+](=O)[O-])cc3)C(=O)[C@@H]3CCCN32)N1c1ccc([N+](=O)[O-])cc1 | inactive | inactive | > 10 | inactive | – | – | – | – | – | – | – | – | – | – | – | – | – | –
18 | O=C1[C@@H]2CCCN2[C@@H](c2ccco2)N1c1ccc([N+](=O)[O-])cc1 | inactive | Dose-dependent effect | > 10 | inactive | – | Active | inactive | – | inactive | Active | – | Active | inactive | Active | Active | Active | Active | –
19 | O=C1[C@@H]2CCCN2[C@@H](Cc2ccccc2)N1c1ccc([N+](=O)[O-])cc1 | Active | inactive | > 10 | inactive | – | – | – | – | – | – | – | – | – | – | – | – | – | –
